One data set has as its system nuclear Arc protein. Particulars: 16.7 μM co-applied with recombinant BDNF for 6 h; cited from earlier work.
Another data set deals with Arc protein. In words: BDNF-induced Arc expression, western blot, primary cortical neurons. Format: cell-based, mouse. Particulars: BDNF co-treatment, tested 1 to 20 μM. The protocol:
The following procedure was used to quantify western blot analyses. First, equal quantity of protein lysate was analyzed by SDS-PAGE for each biological replicate. Second, the exposure time of the film to the ECL chemiluminescence was the same for each biological replicate. Third, all the exposed films were scanned on a HP Laser Jet Pro M377dw scanner in grayscale at a resolution of 300 dpi. Fourth, the look-up table (LUT) of the scanned tiff images was inverted and the intensity of each band was individually estimated using the selection tool and the histogram function in Adobe Photoshop CC 2021 software. Finally, the intensity of each band was divided by the intensity of its respective loading control (b-actin) to provide the normalized value used for statistical analysis.

Another data set has as its system Arc mRNA. The data set can be described thus: Arc mRNA real-time reverse transcriptase PCR, primary cortical neurons. Conditions: 10 μM with BDNF; vs BDNF-alone control. Format: cell-based, mouse.
For data set [1], the system named is Neuro2a cells stably expressing Ntrk2-Myc-FLAG. The data set can be described thus: Neurite outgrowth assessment. Particulars: 10 μM with BDNF. In kind it is cell-based. The protocol: For neurite outgrowth assay, Neuro2a cells were cultured in DMEM [supplemented with 10% HyClone FetalClone II serum (Cytiva, Global Life Sciences Solutions, Marlborough, MA), penicillin (50 units/ml), and streptomycin (50 μg/ml)] and transfected overnight using Lipofectamine 2000 (Invitrogen) according to the manufacturer's protocol.
Neuro2A cells transfected with a pCMV6-Ntrk2-Myc-DDK (FLAG) construct were selected with G418 (Geneticin) to produce a stable cell line that constitutively expresses tagged-TrkB. For neurite outgrowth assessment, cells were seeded on 15 mm glass coverslips in 12-well plates at a density of 2.0×10^4 per well. […] Phase contrast digital images were collected with a 20× objective 48 h after plating and the total number of viable cells, total number of neurites, and cells with neurites longer than 2 cells in diameter were counted (five fields per dish, three wells per condition).

Data set [2] relates to A172 GBM cells. In words: AlamarBlue cell viability, A172. In kind it is cell-based. Particulars: 24, 48 and 72 hours, vs DMSO. The protocol:
(§1) FIG. 6. Cannflavins A and B reduce the viability of Glioblastoma cells. Cell viability was measured using an AlamarBlue reaction after 24, 48, and 72 hours of treatment. […] Graphs represent mean±SEM.

For data set [3], the system named is U87 GBM cells. In words: AlamarBlue cell viability, U87. In kind it is cell-based. Particulars: 24, 48 and 72 hours, vs DMSO. The protocol: as §1
Data set [4] relates to A172 GBM cells. In words: LDH cytotoxicity assay, A172. Format: cell-based. Conditions: 24 hours, compared to DMSO.
The test system of data set [5] is U87 GBM cells. The data set can be described thus: LDH cytotoxicity assay, U87. In kind it is cell-based. Conditions: 24 hours, compared to DMSO.
The subject of data set [6] is A172 GBM cells. In words: Boyden Chamber invasion assay. Particulars: 10 μM; for GBM cell invasion: 24 hours. In kind it is cell-based. The protocol: FIG. 9. […] Boyden Chamber assay was performed on A172 GBM cells to analyze minimal doses (10 μM) of TrkB inhibitors on preventing GBM cell invasion. Cells were pretreated in low serum media for 24 hours. Bottoms of transwell inserts were coated with fibronectin and tops were coated with Matrigel prior to cells being seeded with treatment media (low serum; n=3 per treatment). After 24 hours, cells were cleaned off the top of the Matrigel, and cells that invaded into the pores of the transwell were stained with 1% Crystal Violet and (A) imaged at 20×.

The subject of data set [7] is prostaglandin E2 production. Particulars: inhibitors of prostaglandin E2 production; cited from earlier work.
Data set [8] has as its system U87 GBM cells. In words: Scratch migration analysis, U87. Conditions: 24 hours of treatment.
Data set [9] relates to A172 GBM cells. In words: Scratch migration analysis, A172. Particulars: 24 hours of treatment.
The subject of data set [10] is 320 distinct nonolfactory human GPCRs. In words: PRESTO-Tango GPCR assay (GPCRome panel). Conditions: 10 μM; quadruplicate.
Data set [11] concerns Ras-Raf-MEK-MAPK and PI3K/AKT/mTOR cascades. The data set can be described thus: Signaling downstream of TrkB, western blot, primary cortical neurons. Particulars: BDNF-induced increase; 0, 1, 5, 10, 20 μM.
Description: Developing cerebral cortex from E16.5 CD-1 mouse embryos were dissected and then dissociated in trypsin solution for 15 min followed by three washes with phosphate-buffered saline (PBS). Trypsinized tissue was gently triturated to produce single cell suspension. Next, cells were seeded in poly-L-lysine/laminin coated 6-well plates at a density of 1.5×10^6 per well and maintained in Neurobasal medium containing B27 supplement (2%, Invitrogen, Grand Island, NY), penicillin (50 U/ml, Invitrogen), streptomycin (50 μg/ml, Invitrogen) and glutamine (1 mM, Sigma). For experiments involving BDNF (PeproTech, Rocky Hill, NJ), the growth factor was added directly to the culture medium at a final concentration of 100 ng/ml for the indicated period of time.
For western blot analyses, cells were collected by scraping in ice-cold radioimmunoprecipitation assay (RIPA) buffer (50 mM tris-HCl [pH 8.0], 300 mM NaCl, 0.5% Igepal-630, 0.5% deoxycholic acid, 0.1% SDS, 1 mM EDTA) supplemented with a cocktail of protease inhibitors (Complete Protease Inhibitor without EDTA, Roche Applied Science, Indianapolis, IN) and phosphatase inhibitors (Phosphatase Inhibitor Cocktail 3, Sigma-Aldrich). One volume of 2× Laemmli buffer (100 mM tris-HCl [pH 6.8], 4% SDS, 0.15% bromophenol blue, 20% glycerol, 200 mM b-mercaptoethanol) was added and the extracts were boiled for 5 min. Samples were adjusted to an equal concentration after protein concentrations were determined using the BCA assay (Pierce, Thermo Fisher Scientific). Lysates were separated using SDS-PAGE (polyacrylamide gel electrophoresis) and transferred to a nitrocellulose membrane. After transfer, the membrane was blocked in TBST (tris-buffered saline and 0.1% Tween 20) supplemented with 5% nonfat powdered milk and probed with the indicated primary antibody at 4° C. overnight. After washing with TBST, the membrane was incubated with the appropriate secondary antibody and visualized using enhanced chemiluminescence (ECL) reagents according to the manufacturer's guidelines (Pierce, Thermo Fisher Scientific).
A further data set has as its system Mapk. In words: Mapk phosphorylation, western blot, Neuro2a cells stably expressing Ntrk2-Myc-FLAG. Format: cell-based. Conditions: with BDNF.
In a further data set the test system is medulloblastoma cell. Conditions: TrkB inhibition; cited from earlier work.
In another data set the test system is nuclear Arc. The data set can be described thus: BDNF-induced nuclear Arc, fluorescent immunocytochemistry, primary cortical neurons. In kind it is cell-based, mouse. Particulars: 10 μM co-treated with BDNF; vs BDNF-alone control. The protocol: Indirect immunofluorescence detection of antigens was carried out using cortical neurons cultured on poly-L-lysine/laminin coated coverslips in 24-well plates at a density of 0.1′10^6 per well. After experimental treatment, cells were washed twice with phosphate-buffered saline (PBS) and fixed for 30 min at room temperature with 4% paraformaldehyde in PBS. After fixation, cells were washed twice with PBS, permeabilized with PBST (PBS and 0.25% Triton X-100) for 20 min, blocked in blocking solution (5% goat non-immune serum in PBS) for another 30 min, and finally incubated overnight at 4° C. with the first primary antibody in blocking solution. The next day, coverslips were extensively washed with PBS and incubated for 2 hours at room temperature in the appropriate fluorophore-conjugated secondary antibody solution [Alexa Fluor 488-, Alexa Fluor 594, or Alexa Fluor 647-conjugated secondary antibody (Molecular Probes, Invitrogen) in blocking solution]. After washes with PBS, the coverslips were incubated again overnight in primary antibody solution for the second antigen, and the procedure for conjugation of the fluorophore-conjugated secondary antibody was repeated as above. Finally, cell nuclei were counterstained with 4′,6-diamidino-2-phenylindole (DAPI), and coverslips were mounted on glass slides with ProLong Antifade reagent (Invitrogen).
Cells cultured on coverslips from three independent biological replicates were imaged with a Nikon Eclipse Ti2-E inverted microscope equipped with a motorized stage, image stitching capability, and a 60× objective (Nikon Instruments, Melville, NY). Image analysis was performed with ImageJ and NIS Elements and the following procedure was used to quantify nuclear Arc level in response to BDNF-TrkB signaling. First, original raw tiff files were opened and the nucleus of all neurons in the image was located based on MAP2 immunostaining, then average pixel intensity corresponding to Arc immunofluorescence was measured for a 30-pixel spot positioned at the center of the nuclear compartment. […]

A further data set has as its target T1, GPR150 (Homo sapiens, UniProt Q8NGU9).
T1 construct: expressed in transfected cells
In words: PRESTO-Tango GPCR assay, GPR150. Format: cell-based. Particulars: 10 μM.

T1 sequence (Q8NGU9 whole entry): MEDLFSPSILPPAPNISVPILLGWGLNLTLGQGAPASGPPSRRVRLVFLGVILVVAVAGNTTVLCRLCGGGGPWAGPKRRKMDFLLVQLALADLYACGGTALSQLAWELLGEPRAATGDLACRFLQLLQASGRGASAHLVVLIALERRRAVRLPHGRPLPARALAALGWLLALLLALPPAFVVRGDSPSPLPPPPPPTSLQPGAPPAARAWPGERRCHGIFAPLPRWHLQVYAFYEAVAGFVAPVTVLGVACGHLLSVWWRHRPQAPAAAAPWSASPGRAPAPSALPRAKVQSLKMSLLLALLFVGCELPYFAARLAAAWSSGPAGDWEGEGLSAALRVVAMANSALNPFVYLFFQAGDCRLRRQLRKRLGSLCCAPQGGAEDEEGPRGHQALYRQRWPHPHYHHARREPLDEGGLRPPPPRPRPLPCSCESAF

Turning to `O=c1cc(-c2ccccc2)oc2c(O)c(O)ccc12` [7,8-DHF, 7,8-dihydroxyflavone], the “nuclear Arc protein level” value in the data set on nuclear Arc protein is “enhance nuclear Arc protein level above the control measure”.
Turning to `O=C(O)[C@H]1O[C@@H](Oc2cc3oc(-c4ccccc4)cc(=O)c3c(O)c2O)[C@H](O)[C@@H](O)[C@@H]1O` [baicalin], the “nuclear Arc protein level” value with nuclear Arc protein was “enhance nuclear Arc protein level above the control measure”.
As to `COc1cc(-c2cc(=O)c3c(O)c(C/C=C(\C)CCC=C(C)C)c(O)cc3o2)ccc1O` [cannflavin A], in the data set on Arc protein, the “concentrations resulting in significantly less Arc protein abundance than the BDNF-alone control” value was 10 to 20 µM. In addition, the “Arc mRNA abundance” value in the data set on Arc mRNA was “prevent induction of Arc mRNA expression”. In [1], the BDNF-induced neurite outgrowths entry is listed as “reduce”. In addition, the “cell viability (AlamarBlue)” value with A172 GBM cells [2] is “reduced cell viability”. The “cell viability (AlamarBlue)” value with U87 GBM cells [3] is listed as “reduced cell viability”. Moreover, the “LDH release / cell necrosis” value in the data set on A172 GBM cells [4] was “slight increase in LDH release”. The “LDH release / cell necrosis” value with U87 GBM cells [5] was “slight increase in LDH release”. The GBM cell invasion result with A172 GBM cells [6] was “reduce invasion”. The “anti-inflammatory potency relative to aspirin” value in data set [7] is recorded as “thirty times more potent than aspirin”. In addition, in the data set on U87 GBM cells [8], the cell migration result is recorded as “reduce the migration”. Also, the cell migration entry in the data set on A172 GBM cells [9] is “reduce the migration”. Further, the “agonist activity on GPCRs” value in [10] is recorded as “no effect on any of the 322 different GPCRs tested”. In addition, in data set [11], the P-Akt level result was “sharply reduced”, the P-MAPK level result is “sharply reduced”, the P-mTOR level entry is listed as “sharply reduced” and the P-rpS6 level entry is “sharply reduced”.
As for `O=C(Nc1ccccc1C(=O)NC1CCCCNC1=O)c1cc2ccccc2s1` (stereo not shown) [ANA-12], the P-Mapk levels result with Mapk was “did not observe a decrease”. Further, in data set [1] (24-hour treatment), the “number of cells with neurites twice the length of the cell” value was “decrease”, the “total number of neurites per field” value is “decrease” and the viable cells result is on record as “decrease”. Also, in the data set on A172 GBM cells [2], the “cell viability (AlamarBlue)” value is listed as “reduced cell viability”. Also, in the data set with U87 GBM cells [3], the “cell viability (AlamarBlue)” value is “reduced cell viability”. In addition, in the data set with A172 GBM cells [6], the GBM cell invasion result was “decrease in GBM cell invasion”. In the data set with medulloblastoma cell, the medulloblastoma cell survival entry is reported as “reduced medulloblastoma cell survival by inducing apoptosis”.
Take `O=c1c(-c2ccc(O)cc2)coc2cc(O)ccc12` [daidzein]: the “percentage of nuclei with Arc expression above threshold (Arc-positive neuronal abundance)” value (from here on “percentage of nuclei”) in the data set on nuclear Arc was “moderate increase”. Besides, the “nuclear Arc protein level” value in the data set with nuclear Arc protein is recorded as “enhance nuclear Arc protein level above the control measure”.
For the compound `O=c1c(-c2ccc(O)cc2)coc2cc(O)cc(O)c12` [genistein], the “percentage of nuclei” value with nuclear Arc is “moderate increase”. Besides, in the data set on nuclear Arc protein, the “nuclear Arc protein level” value is “enhance nuclear Arc protein level above the control measure”.
With `COc1cc(-c2cc(=O)c3c(O)c(CC=C(C)C)c(O)cc3o2)ccc1O` [cannflavin B], the “concentrations resulting in significantly less Arc protein abundance than the BDNF-alone control” value in the data set on Arc protein was 1 to 20 µM. Besides, the “Arc mRNA abundance” value in the data set with Arc mRNA is “prevent induction of Arc mRNA expression”. The “increase of GPR150 activity from baseline” value at GPR150 is listed as 4.4 fold-change. Also, the BDNF-induced neurite outgrowths entry in [1] is given as “reduce”. For the same compound, the “cell viability (AlamarBlue)” value with A172 GBM cells [2] was “reduced cell viability”. For the same compound, in the data set on U87 GBM cells [3], the “cell viability (AlamarBlue)” value was “reduced cell viability”. Besides, in the data set with A172 GBM cells [4], the “LDH release / cell necrosis” value is reported as “slight increase in LDH release”. In addition, the “LDH release / cell necrosis” value with U87 GBM cells [5] was “slight increase in LDH release”. In addition, the GBM cell invasion result with A172 GBM cells [6] is given as “decrease in GBM cell invasion”. Besides, in the data set on A172 GBM cells [6] (no statistical scores), the “efficiency in reducing cell invasion compared with the other TrkB inhibitors” value was “tends to be more efficient in reducing cell invasion than cannflavin A and ANA-12”. Also, the “anti-inflammatory potency relative to aspirin” value in [7] is listed as “thirty times more potent than aspirin”. The cell migration entry in the data set with U87 GBM cells [8] is given as “reduce the migration”. Further, the cell migration entry in the data set on A172 GBM cells [9] is on record as “reduce the migration”. In data set [11], the P-Akt level result was “sharply reduced”, the P-MAPK level entry is recorded as “sharply reduced”, the P-mTOR level entry was “sharply reduced” and the P-rpS6 level entry is given as “sharply reduced”.
With `Oc1cc(O)c2c(c1)O[C@H](c1cc(O)c(O)c(O)c1)[C@H](O)C2` [ECGC, (−)-epigallocatechin], in the data set with nuclear Arc, the “percentage of nuclei” value is on record as “moderate increase”. The “nuclear Arc protein level” value in the data set with nuclear Arc protein is “enhance nuclear Arc protein level above the control measure”.
